# Target: T1, CFTR in F508del/MF-HBE cells (Homo sapiens, UniProt P13569, DEL508-508)
# T1 construct: human bronchial epithelial (HBE) cells derived from CF subjects heterozygous for F508del and a minimal function CFTR mutation; endogenous in cells; host or cells: primary human bronchial epithelial cells from CF subjects (F508del/MF-HBE)
# Assay: Ussing chamber assay of CFTR-mediated short-circuit currents (identification of potentiator compounds)
# Type: cell-based
# Conditions: potentiator incubated 18-24 hours at 37° C. in combination with 10 μM corrector, in the presence of 20% human serum, CFTR-mediated ISC
# In short: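 F508del/MF-HBE cultures were preincubated 18-24 h at 37° C with potentiator plus 10 μM of a fixed corrector compound in 20% human serum; compounds were kept present during measurement. ISC was recorded under voltage clamp (0 mV, 37° C, amiloride apical) and taken as the 20 μM forskolin peak minus the current after inhibitor cocktail.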
# T1 sequence (P13569 with tags, fused parts or gaps DEL508-508): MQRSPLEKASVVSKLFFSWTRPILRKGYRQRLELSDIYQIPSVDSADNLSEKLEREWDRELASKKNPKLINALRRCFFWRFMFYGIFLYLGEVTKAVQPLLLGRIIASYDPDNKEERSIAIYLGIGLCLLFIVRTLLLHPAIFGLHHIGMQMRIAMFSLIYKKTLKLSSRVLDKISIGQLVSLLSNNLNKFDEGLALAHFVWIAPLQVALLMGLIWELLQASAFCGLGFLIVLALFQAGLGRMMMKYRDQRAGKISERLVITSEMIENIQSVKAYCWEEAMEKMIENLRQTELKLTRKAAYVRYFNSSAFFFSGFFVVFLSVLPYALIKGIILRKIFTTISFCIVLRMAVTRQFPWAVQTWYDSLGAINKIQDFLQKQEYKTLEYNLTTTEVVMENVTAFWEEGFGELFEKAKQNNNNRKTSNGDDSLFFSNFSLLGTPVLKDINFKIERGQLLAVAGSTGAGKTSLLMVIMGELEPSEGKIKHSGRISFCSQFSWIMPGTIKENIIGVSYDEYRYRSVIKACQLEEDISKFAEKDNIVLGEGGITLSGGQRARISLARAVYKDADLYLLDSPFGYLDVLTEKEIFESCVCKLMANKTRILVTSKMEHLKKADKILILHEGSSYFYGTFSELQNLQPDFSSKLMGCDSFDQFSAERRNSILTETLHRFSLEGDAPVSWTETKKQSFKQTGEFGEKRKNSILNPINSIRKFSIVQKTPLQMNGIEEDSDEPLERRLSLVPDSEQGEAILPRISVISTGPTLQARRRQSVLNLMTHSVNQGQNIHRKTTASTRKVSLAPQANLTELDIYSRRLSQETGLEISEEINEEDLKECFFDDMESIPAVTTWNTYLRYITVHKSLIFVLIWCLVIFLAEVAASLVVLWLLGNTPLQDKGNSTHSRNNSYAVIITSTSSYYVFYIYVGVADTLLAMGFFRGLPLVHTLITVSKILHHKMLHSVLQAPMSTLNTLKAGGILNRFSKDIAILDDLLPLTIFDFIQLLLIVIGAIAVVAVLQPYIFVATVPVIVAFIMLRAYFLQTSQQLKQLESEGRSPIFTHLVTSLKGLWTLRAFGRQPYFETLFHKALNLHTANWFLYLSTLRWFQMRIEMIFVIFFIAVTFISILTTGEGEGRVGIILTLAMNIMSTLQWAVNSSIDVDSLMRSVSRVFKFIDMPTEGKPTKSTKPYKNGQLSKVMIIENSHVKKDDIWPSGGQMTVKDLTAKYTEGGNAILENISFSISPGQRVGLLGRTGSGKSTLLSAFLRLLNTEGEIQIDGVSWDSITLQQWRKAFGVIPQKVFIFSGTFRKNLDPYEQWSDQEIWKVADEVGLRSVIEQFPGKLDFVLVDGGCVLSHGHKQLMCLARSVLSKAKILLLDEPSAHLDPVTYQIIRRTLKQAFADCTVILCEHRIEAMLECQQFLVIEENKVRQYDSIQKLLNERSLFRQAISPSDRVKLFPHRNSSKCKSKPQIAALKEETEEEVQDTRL
row,EC50,Compound
1,< 500 nM,"Nc1cc(C(F)(F)F)c2nc1-c1nnc(o1)[C@@](O)(C(F)(F)F)CCCCCN(Cc1cccc(C(F)F)c1)C2=O [Compound 241, (6R)-17-amino-12-[[3-(difluoromethyl)phenyl]methyl]-6-hydroxy-6,15-bis(trifluoromethyl)-19-oxa-3,4,12,18-tetrazatricyclo [12.3.1.12,5] nonadeca-1(18),2,4,14,16-pentaen-13-one]"
2,< 500 nM,"Nc1cc(C(F)(F)F)c2nc1-c1nnc(o1)[C@@](O)(C(F)(F)F)CCCCCN(Cc1cc(F)cc(C3CC3)c1)C2=O [Compound 247, (6R)-17-amino-12-[(3-cyclopropyl-5-fluoro-phenyl)methyl]-6-hydroxy-6,15-bis(trifluoromethyl)-19-oxa-3,4,12,18-tetrazatricyclo [12.3.1.12,5] nonadeca-1(18),2,4,14,16-pentaen-13-one]"
3,< 500 nM,"Nc1cc(C(F)(F)F)c2nc1-c1nnc(o1)[C@@](O)(C(F)(F)F)CCCCCN(Cc1cc(F)cc(C3CCC3)c1)C2=O [Compound 248, (6R)-17-amino-12-[(3-cyclobutyl-5-fluoro-phenyl)methyl]-6-hydroxy-6,15-bis(trifluoromethyl)-19-oxa-3,4,12,18-tetrazatricyclo [12.3.1.12,5] nonadeca-1(18),2,4,14,16-pentaen-13-one]"
4,< 500 nM,"Nc1cc(C(F)(F)F)c2nc1-c1nnc(o1)[C@@](O)(C(F)(F)F)CCCCCN(Cc1ccc(F)c(C3CC3)c1)C2=O [Compound 255, (6R)-17-amino-12-[(3-cyclopropyl-4-fluoro-phenyl)methyl]-6-hydroxy-6,15-bis(trifluoromethyl)-19-oxa-3,4,12,18-tetrazatricyclo [12.3.1.12,5] nonadeca-1(18),2,4,14,16-pentaen-13-one]"
5,< 500 nM,"Nc1cc(C(F)(F)F)c2nc1-c1nnc(o1)[C@@](O)(C(F)(F)F)CCCCCN(Cc1ccc(F)c(C3CCC3)c1)C2=O [Compound 256, (6R)-17-amino-12-[(3-cyclobutyl-4-fluoro-phenyl)methyl]-6-hydroxy-6,15-bis(trifluoromethyl)-19-oxa-3,4,12,18-tetrazatricyclo [12.3.1.12,5] nonadeca-1(18),2,4,14,16-pentaen-13-one]"
6,< 500 nM,"Nc1cc(C(F)(F)F)c2nc1-c1nnc(o1)[C@@](O)(C(F)(F)F)CCCCCN(Cc1cc(F)cc(Cl)c1)C2=O [Compound 257, (6R)-17-amino-12-[(3-chloro-5-fluoro-phenyl)methyl]-6-hydroxy-6,15-bis(trifluoromethyl)-19-oxa-3,4,12,18-tetrazatricyclo [12.3.1.12,5] nonadeca-1(18),2,4,14,16-pentaen-13-one]"
7,< 500 nM,"Nc1cc(C(F)(F)F)c2nc1-c1nnc(o1)[C@@](O)(C(F)(F)F)CCCCCN(Cc1cc(C3CC3)ccc1F)C2=O [Compound 259, (6R)-17-amino-12-[(5-cyclopropyl-2-fluoro-phenyl)methyl]-6-hydroxy-6,15-bis(trifluoromethyl)-19-oxa-3,4,12,18-tetrazatricyclo [12.3.1.12,5] nonadeca-1(18),2,4,14,16-pentaen-13-one]"
8,< 500 nM,"Nc1cc(C(F)(F)F)c2nc1-c1nnc(o1)[C@@](O)(C(F)(F)F)CCCCCN(Cc1cc(C3CCC3)ccc1F)C2=O [Compound 260, (6R)-17-amino-12-[(5-cyclobutyl-2-fluoro-phenyl)methyl]-6-hydroxy-6,15-bis(trifluoromethyl)-19-oxa-3,4,12,18-tetrazatricyclo [12.3.1.12,5] nonadeca-1(18),2,4,14,16-pentaen-13-one]"
9,< 500 nM,"Nc1cc(C(F)(F)F)c2nc1-c1nnc(o1)[C@@](O)(C(F)(F)F)CCCCCN(Cc1ccc(OC(F)(F)F)c(F)c1)C2=O [Compound 265, (6R)-17-amino-12-[[3-fluoro-4-(trifluoromethoxy)phenyl]methyl]-6-hydroxy-6,15-bis(trifluoromethyl)-19-oxa-3,4,12,18-tetrazatricyclo [12.3.1.12,5] nonadeca-1(18),2,4,14,16-pentaen-13-one]"
10,< 500 nM,"Nc1cc(C(F)(F)F)c2nc1-c1nnc(o1)[C@@](O)(C(F)(F)F)CCCCCN(Cc1ccc(OC(F)F)c(F)c1)C2=O [Compound 267, (6R)-17-amino-12-[[4-(difluoromethoxy)-3-fluoro-phenyl]methyl]-6-hydroxy-6,15-bis(trifluoromethyl)-19-oxa-3,4,12,18-tetrazatricyclo [12.3.1.12,5] nonadeca-1(18),2,4,14,16-pentaen-13-one]"

# Continued, compound first:
row,Compound,EC50
1,"Nc1cc(C(F)(F)F)c2nc1-c1nnc(o1)[C@@](O)(C(F)(F)F)CCCCCN(CC1CCC(F)(F)CC1)C2=O [Compound 242, (6R)-17-amino-12-[(4,4-difluorocyclohexyl)methyl]-6-hydroxy-6,15-bis(trifluoromethyl)-19-oxa-3,4,12,18-tetrazatricyclo [12.3.1.12,5] nonadeca-1(18),2,4,14,16-pentaen-13-one]",< 500 nM
2,"Nc1cc(C(F)(F)F)c2nc1-c1nnc(o1)[C@@](O)(C(F)(F)F)CCCCCN(CC1CC(F)(F)C1)C2=O [Compound 243, (6R)-17-amino-12-[(3,3-difluorocyclobutyl)methyl]-6-hydroxy-6,15-bis(trifluoromethyl)-19-oxa-3,4,12,18-tetrazatricyclo [12.3.1.12,5] nonadeca-1(18),2,4,14,16-pentaen-13-one]",< 500 nM
3,"CC(C)(O)c1cccc(CN2CCCCC[C@](O)(C(F)(F)F)C3=NN=C(O3)c3nc(c(C(F)(F)F)cc3N)C2=O)c1 [Compound 244, (6R)-17-amino-6-hydroxy-12-[[3-(1-hydroxy-1-methyl-ethyl)phenyl]methyl]-6,15-bis(trifluoromethyl)-19-oxa-3,4,12,18-tetrazatricyclo [12.3.1.12,5] nonadeca-1(18),2,4,14,16-pentaen-13-one]",< 500 nM
4,"Nc1cc(C(F)(F)F)c2nc1-c1nnc(o1)[C@@](O)(C(F)(F)F)CCCCCN(CC1C3(CC3)C13CC3)C2=O [Compound 245, (6R)-17-amino-12-(dispiro[2.0.24.13]heptan-7-ylmethyl)-6-hydroxy-6,15-bis(trifluoromethyl)-19-oxa-3,4,12,18-tetrazatricyclo [12.3.1.12,5] nonadeca-1(18),2,4,14,16-pentaen-13-one]",< 500 nM
5,"Nc1cc(C(F)(F)F)c2nc1-c1nnc(o1)[C@@](O)(C(F)(F)F)CCCCCN(CC1C3CCCCC31)C2=O (stereo partly drawn) [Compound 246, (6R)-17-amino-6-hydroxy-12-(norcaran-7-ylmethyl)-6,15-bis(trifluoromethyl)-19-oxa-3,4,12,18-tetrazatricyclo [12.3.1.12,5] nonadeca-1(18),2,4,14,16-pentaen-13-one]",< 500 nM
6,"Nc1cc(C(F)(F)F)c2nc1-c1nnc(o1)[C@@](O)(C(F)(F)F)CCCCCN(CC(C1CC1)C1CC1)C2=O [Compound 251, (6R)-17-amino-12-(2,2-dicyclopropylethyl)-6-hydroxy-6,15-bis(trifluoromethyl)-19-oxa-3,4,12,18-tetrazatricyclo [12.3.1.12,5] nonadeca-1(18),2,4,14,16-pentaen-13-one]",> 1000 nM
7,"Nc1cc(C(F)(F)F)c2nc1-c1nnc(o1)[C@@](O)(C(F)(F)F)CCCCCN(CC1CC13CC3)C2=O (stereo partly drawn) [Compound 252, (6R)-17-amino-6-hydroxy-12-(spiro[2.2]pentan-2-ylmethyl)-6,15-bis(trifluoromethyl)-19-oxa-3,4,12,18-tetrazatricyclo [12.3.1.12,5] nonadeca-1(18),2,4,14,16-pentaen-13-one]",< 500 nM
8,"Nc1cc(C(F)(F)F)c2nc1-c1nnc(o1)[C@@](O)(C(F)(F)F)CCCCCN(C1(C3CC3)CC1)C2=O [Compound 253, (6R)-17-amino-12-(1-cyclopropylcyclo-propyl)-6-hydroxy-6,15-bis(trifluoromethyl)-19-oxa-3,4,12,18-tetrazatricyclo [12.3.1.12,5] nonadeca-1(18),2,4,14,16-pentaen-13-one]",< 500 nM
9,"Nc1cc(C(F)(F)F)c2nc1-c1nnc(o1)[C@@](O)(C(F)(F)F)CCCCCN(Cc1cccc(OC(F)F)c1)C2=O [Compound 254, (6R)-17-amino-12-[[3-(difluoromethoxy)phenyl]methyl]-6-hydroxy-6,15-bis(trifluoromethyl)-19-oxa-3,4,12,18-tetrazatricyclo [12.3.1.12,5] nonadeca-1(18),2,4,14,16-pentaen-13-one]",< 500 nM
10,"Nc1cc(C(F)(F)F)c2nc1-c1nnc(o1)[C@@](O)(C(F)(F)F)CCCCCN(Cc1cc(F)cc(C(F)(F)F)c1)C2=O [Compound 258, (6R)-17-amino-12-[[3-fluoro-5-(trifluoromethyl)phenyl]methyl]-6-hydroxy-6,15-bis(trifluoromethyl)-19-oxa-3,4,12,18-tetrazatricyclo [12.3.1.12,5] nonadeca-1(18),2,4,14,16-pentaen-13-one]",< 500 nM
11,"Nc1cc(C(F)(F)F)c2nc1-c1nnc(o1)[C@@](O)(C(F)(F)F)CCCCCN(Cc1ccc(OC(F)F)cc1)C2=O [Compound 266, (6R)-17-amino-12-[[4-(difluoromethoxy)phenyl]methyl]-6-hydroxy-6,15-bis(trifluoromethyl)-19-oxa-3,4,12,18-tetrazatricyclo [12.3.1.12,5] nonadeca-1(18),2,4,14,16-pentaen-13-one]",< 500 nM
12,"Nc1cc(C(F)(F)F)c2nc1-c1nnc(o1)[C@@](O)(C(F)(F)F)CCCCCN(Cc1ccc(OC(F)F)nc1)C2=O [Compound 268, (6R)-17-amino-12-[[6-(difluoromethoxy)-3-pyridyl]methyl]-6-hydroxy-6,15-bis(trifluoromethyl)-19-oxa-3,4,12,18-tetrazatricyclo [12.3.1.12,5] nonadeca-1(18),2,4,14,16-pentaen-13-one]",< 500 nM

# — patent publication US20250122218A1, “MODULATORS OF CYSTIC FIBROSIS TRANSMEMBRANE CONDUCTANCE REGULATOR” (Vertex Pharmaceuticals Incorporated, priority 2022, published 2025)
